Data: patent US8362031B2, “Lonidamine analogues and treatment of polycystic kidney disease” (University of Kansas, priority 2004, dated 2013)

Tests used:
ADPKD cells [1] = experiment: Wound-healing scratch assay (cell migration); type: cell-based, human
Method: Gamendazole (GMZ) was tested to determine if it inhibits cell migration. Briefly, ADPKD cells were plated on a 12-well cell culture plate in 5% FBS-containing medium and allowed to form a confluent monolayer. The monolayer was wounded using a P-200 pipette tip and the medium changed to include increasing concentrations of gamendazole. Images of three different fields per well were captured at 10× magnification immediately after wounding and at 4, 8 and 24 hours post-wounding. GMZ was tested at 0, 10, 50, and 100 uM. Area of the wound was measured at each time point using NIH Image J program. Percentage of wound closure was calculated by subtracting the area of the wound at any given time point from the 0 h wound area expressed as a percentage of the 0 h wound area. Statistical analysis was done to compare the GMZ-treated cells to untreated cells at each time point using One-way ANOVA and the Tukey HSD test for pair-wise comparisons.

[2] = tested on: ADPKD cyst-lining epithelial cells; experiment: MTT assay, proliferation of ADPKD cyst-lining epithelial cells; type: cell-based, human
Method: Gamendazole (GMZ) was studied to determine the effect on cAMP and EGF treated ADPKD cyst-lining epithelial cells. The cells were treated with 100 uM cAMP or 25 ng/ml EGF to stimulate cell proliferation. Increasing concentrations of gamendazole were added to the medium of the cells. After 72 hours of treatment, MTT assays were performed.
For the MTT assay shown in FIG. 10A, ADPKD cyst-lining epithelial cells were plated at a density of 4×10^3 cells per well in a 96-well cell culture plate (n=6). Cells were serum-starved for 24 hours and treated either with 100 μM cAMP or 25 ng/ml EGF to stimulate cell proliferation. For the MTT assay shown in FIG. 10B, ADPKD cells were plated at a density of 2×10^3 cells per well in medium containing 1% FBS. After 24 hours, medium was changed to include 5% FBS. Increasing concentrations of GMZ were added to the medium for the cells of both FIGS. 10A and 10B to determine the effect of GMZ on cell proliferation. After 72 hours of treatment, MTT assays were performed by adding dye solution to the cells and stopping the reaction four hours later. Optical densities were measured using a spectrophotometer. In each group, results were expressed as a percentage of the control group (not treated with GMZ).

ADPKD cells [3] = experiment: Phalloidin staining of the actin cytoskeleton; type: cell-based, human; settings: increasing concentrations
Method: To determine if gamendazole treatment alters actin cytoskeleton dynamics, ADPKD cells were stained with phalloidin and examined by fluorescence microscopy. […] Briefly, ADPKD cells or M-1 cortical collecting duct cells were plated in a 4-well chamber slide in 5% FBS-containing medium. After 24 hours, the cells were treated with increasing concentrations of GMZ. Cells were fixed using 4% paraformaldehyde and permeabilized with 0.2% Triton-X 100. Cells were then incubated for 20 min with TRITC-conjugated phalloidin, washed with PBS and mounted with DAPI-containing mounting medium. Images were captured at 10× (FIG. 13A) or 60× (FIG. 13B), using the same exposure settings for treated and untreated cells. […] Blue (internal staining) indicates DAPI-stained nuclei.

[4] = target: Hsp82 (the yeast homologue of Hsp90) (Saccharomyces cerevisiae, UniProt P02829); experiment: Cross-linking of biotinylated analogue to purified protein, competition with excess RC-MC-110; type: binding; settings: 10-fold excess of RC-MC-110, purified protein, UV cross-linking
Method: In this example, the binding of cross-linked biotinylated RC-MC-110 ([…]) to Hsp82 (the yeast homologue of Hsp90) was investigated by a cross-linking and biotinylated analogue of RC-MC-110.
The buffer solution in this examples was comprised of 50 mM Tris-HCl, pH 7.4, 50 mM NaCl, 5 mM EDTA, and 50 mM NaF.
First, the protein was diluted with the buffer solution above to give a final concentration of 0.278 mg/ml. The stock protein concentration was 22 mg/ml in 5 μl aliquots.
Next the drug was diluted as follows. Stock concentrations of RC-MC-210 (see structure below) were 0.6 mg/ml (cross-linked biotinylated analogue of RC-MC-110). A 300 μl aliquot was thawed, and separated into two 150 μl aliquots. Dilutions were in the order of 1, ½, ¼, ⅛, 1/16 of the stock solutions. The stock concentration of the competition solution was 0.6 mg/ml RC-MC-210 (549 μM), and about 0.9 mg of RC-MC-110 was dissolved in 150 μl of RC-MC-210 solution to give a final concentration of 6 mg/ml (14.5 mM).
The competition solution had the same concentration of RC-MC-210, but a 10-fold excess of RC-MC-110 (non-biotinylated) to its respective concentration (e.g: ½ RC-MC-210, then the RC-MC-110 was 10× that concentration.)
To prepare of the incubation reactions, 18 μl of protein from a 0.277 mg/ml diluted stock (about 5 μg of protein) was incubated with 2 μl of drug for 1 hr at 4° C. with gentle rocking. […]

Chain of Hsp82 (the yeast homologue of Hsp90) (P02829 whole entry): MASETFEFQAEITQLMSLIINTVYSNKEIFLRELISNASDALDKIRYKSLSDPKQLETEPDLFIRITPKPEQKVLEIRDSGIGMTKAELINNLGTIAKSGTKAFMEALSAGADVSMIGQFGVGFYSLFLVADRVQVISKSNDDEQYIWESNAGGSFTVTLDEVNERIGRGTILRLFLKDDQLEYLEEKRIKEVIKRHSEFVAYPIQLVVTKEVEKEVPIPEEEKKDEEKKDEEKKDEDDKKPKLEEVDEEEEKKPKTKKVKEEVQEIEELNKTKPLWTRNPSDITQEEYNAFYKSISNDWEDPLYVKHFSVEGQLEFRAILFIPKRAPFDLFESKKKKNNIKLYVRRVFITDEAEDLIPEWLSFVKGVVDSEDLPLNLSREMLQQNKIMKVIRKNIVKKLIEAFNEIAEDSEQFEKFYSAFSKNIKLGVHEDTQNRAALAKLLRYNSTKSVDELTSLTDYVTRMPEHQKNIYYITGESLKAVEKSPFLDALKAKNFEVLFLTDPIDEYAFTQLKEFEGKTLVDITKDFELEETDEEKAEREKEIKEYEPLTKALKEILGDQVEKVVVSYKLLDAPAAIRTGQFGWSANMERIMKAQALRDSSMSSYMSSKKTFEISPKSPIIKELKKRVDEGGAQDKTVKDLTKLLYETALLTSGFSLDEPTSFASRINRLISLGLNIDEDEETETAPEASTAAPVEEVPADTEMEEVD

O=C(O)CCc1nn(Cc2ccc(Cl)cc2Cl)c2cc(C(F)(F)F)ccc12 [GMZ, 3-[1-(2,4-dichlorobenzyl)-6-trifluoromethyl-1H-indazol-3-yl]-propionic acid]
cell migration (percentage of wound closure) (ADPKD cells [1]; 10, 50 and 100 uM, 4, 8 and 24 hours post-wounding): significant inhibition of cell migration at all concentrations of GMZ tested and at all time points | wound closure (ADPKD cells [1]; even at low concentration (10 uM)): unable to accomplish wound closure | EGF-induced proliferation of ADPKD cells (MTT) ([2]; 25 ng/ml EGF, 1 uM to 25 uM GMZ for 72 h, dose-dependent): significantly inhibited | cell proliferation at 10 μM ([2]; 10 μM): no effect on cell proliferation | cAMP-induced proliferation of ADPKD cells (MTT) ([2]; 100 μM cAMP, 1 uM to 25 uM GMZ for 72 h, dose-dependent): significantly inhibited | Cell proliferation of ADPKD cells with increasing concentration (MTT, FIGS. 10A and 10B) ([2]; cAMP, EGF or 5% FBS medium, 72 hours): more effectively inhibited cell proliferation as the concentration was increased | Cell morphology, actin cytoskeleton (ADPKD cells [3]): smaller, without leading edges and with less filamentous actin

O=C(O)/C=C/c1nn(Cc2ccc(Cl)cc2Cl)c2cc(C(F)(F)F)ccc12 [RC-MC-110, trans 3-[1-(2,4-dichlorobenzyl)-6-trifluoromethyl-1H-indazol-3-yl]-acrylic acid]
Competition of the binding of the cross-linked biotinylated analogue to Hsp82 [4]: the binding competes with excess RC-MC-110
